Test results published in ChEMBL document CHEMBL1909046, “DrugMatrix in vitro pharmacology data”.

How the values were obtained:
[1] = target: T1, Alpha-1D adrenergic receptor (Homo sapiens, UniProt P25100); assay type: cell membranes, HEK293, Membrane; further: in other assays of this panel Not Active means under 50% inhibition at 10 µM
T1 sequence (P25100 whole entry): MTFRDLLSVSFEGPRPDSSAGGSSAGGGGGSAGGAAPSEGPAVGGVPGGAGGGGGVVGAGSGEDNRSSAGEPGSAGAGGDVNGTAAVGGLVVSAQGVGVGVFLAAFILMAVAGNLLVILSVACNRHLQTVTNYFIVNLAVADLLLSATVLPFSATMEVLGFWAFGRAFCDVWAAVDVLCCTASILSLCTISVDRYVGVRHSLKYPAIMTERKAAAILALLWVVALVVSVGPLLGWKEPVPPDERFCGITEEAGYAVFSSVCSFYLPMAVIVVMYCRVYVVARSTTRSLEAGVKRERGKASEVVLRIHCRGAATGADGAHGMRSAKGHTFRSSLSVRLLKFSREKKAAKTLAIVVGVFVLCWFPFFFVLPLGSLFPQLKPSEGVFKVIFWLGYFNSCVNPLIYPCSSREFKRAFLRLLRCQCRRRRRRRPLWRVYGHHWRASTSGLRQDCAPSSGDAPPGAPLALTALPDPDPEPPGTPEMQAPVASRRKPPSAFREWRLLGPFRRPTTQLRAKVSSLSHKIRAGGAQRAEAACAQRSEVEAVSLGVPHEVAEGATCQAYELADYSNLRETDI

[2] = target: T2, Alpha-2C adrenergic receptor (Homo sapiens, UniProt P18825); assay: DRUGMATRIX: Adrenergic Alpha-2C radioligand binding (ligand: [3H] MK-912); assay type: cell membranes, Sf9, Membrane; settings: sf9; on IC50: call rule not given here
T2 sequence (P18825 whole entry): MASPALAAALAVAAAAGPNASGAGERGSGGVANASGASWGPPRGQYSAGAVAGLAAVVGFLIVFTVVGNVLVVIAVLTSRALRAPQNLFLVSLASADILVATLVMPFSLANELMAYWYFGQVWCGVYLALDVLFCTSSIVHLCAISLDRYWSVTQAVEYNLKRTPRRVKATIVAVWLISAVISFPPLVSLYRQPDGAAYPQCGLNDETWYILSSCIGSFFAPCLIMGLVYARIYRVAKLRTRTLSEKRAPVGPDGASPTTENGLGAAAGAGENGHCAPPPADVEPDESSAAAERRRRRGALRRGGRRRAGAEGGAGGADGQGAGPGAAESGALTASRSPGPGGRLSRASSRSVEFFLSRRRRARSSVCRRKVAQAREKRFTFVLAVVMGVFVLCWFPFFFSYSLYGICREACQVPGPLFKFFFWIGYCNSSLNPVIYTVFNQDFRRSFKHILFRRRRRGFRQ

[3] = target: T3, Vasoactive intestinal polypeptide receptor 1 (Homo sapiens, UniProt P32241); assay type: cell membranes, Membrane; settings: ht-29; further: in other assays of this panel Not Active means under 50% inhibition at 10 µM
T3 sequence (P32241 whole entry): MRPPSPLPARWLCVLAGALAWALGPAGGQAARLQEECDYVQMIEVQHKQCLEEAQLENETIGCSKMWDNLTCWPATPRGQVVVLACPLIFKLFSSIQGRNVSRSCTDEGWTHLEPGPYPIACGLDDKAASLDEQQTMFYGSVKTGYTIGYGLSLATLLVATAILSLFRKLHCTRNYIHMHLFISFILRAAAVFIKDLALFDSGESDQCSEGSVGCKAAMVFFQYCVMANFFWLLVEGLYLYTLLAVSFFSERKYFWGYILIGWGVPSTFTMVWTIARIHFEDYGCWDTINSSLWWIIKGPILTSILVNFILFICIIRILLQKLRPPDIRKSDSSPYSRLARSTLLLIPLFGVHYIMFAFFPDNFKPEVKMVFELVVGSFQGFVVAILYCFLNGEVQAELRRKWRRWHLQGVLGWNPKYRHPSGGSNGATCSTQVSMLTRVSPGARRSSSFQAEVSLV

[4] = target: T4, Polyunsaturated fatty acid lipoxygenase ALOX15 (Oryctolagus cuniculus, UniProt P12530); assay: biochemical; assay type: tissue-based, Reticulocytes;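 further: inhibition of 15-lipoxygenase enzyme activity measured with linoleic acid as the substrate; in other assays of this panel Not Active means under 50% inhibition at 10 µM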
T4 sequence (P12530 whole entry): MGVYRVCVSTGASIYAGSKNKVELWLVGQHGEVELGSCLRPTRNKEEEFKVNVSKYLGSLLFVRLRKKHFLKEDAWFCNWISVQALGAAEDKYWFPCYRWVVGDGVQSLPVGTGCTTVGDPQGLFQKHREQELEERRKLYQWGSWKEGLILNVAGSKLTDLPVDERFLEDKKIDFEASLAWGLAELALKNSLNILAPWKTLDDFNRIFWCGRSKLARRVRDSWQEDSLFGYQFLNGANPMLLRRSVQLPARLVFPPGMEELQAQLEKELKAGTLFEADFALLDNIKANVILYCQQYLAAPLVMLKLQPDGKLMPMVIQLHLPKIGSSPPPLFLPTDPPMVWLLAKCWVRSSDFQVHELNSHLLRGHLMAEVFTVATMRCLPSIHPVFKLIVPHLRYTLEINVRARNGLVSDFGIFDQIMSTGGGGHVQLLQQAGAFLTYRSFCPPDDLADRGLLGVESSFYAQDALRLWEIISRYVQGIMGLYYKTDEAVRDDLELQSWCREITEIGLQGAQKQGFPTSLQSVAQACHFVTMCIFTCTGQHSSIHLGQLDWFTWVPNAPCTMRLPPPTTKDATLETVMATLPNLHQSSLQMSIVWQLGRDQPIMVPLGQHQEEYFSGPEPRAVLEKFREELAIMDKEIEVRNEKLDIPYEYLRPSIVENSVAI

[5] = target: T5, Neuropeptide Y receptor type 2 (Homo sapiens, UniProt P49146); assay type: cell membranes, Membrane; settings: kan-ts; further: in other assays of this panel Not Active means under 50% inhibition at 10 µM
T5 sequence (P49146 whole entry): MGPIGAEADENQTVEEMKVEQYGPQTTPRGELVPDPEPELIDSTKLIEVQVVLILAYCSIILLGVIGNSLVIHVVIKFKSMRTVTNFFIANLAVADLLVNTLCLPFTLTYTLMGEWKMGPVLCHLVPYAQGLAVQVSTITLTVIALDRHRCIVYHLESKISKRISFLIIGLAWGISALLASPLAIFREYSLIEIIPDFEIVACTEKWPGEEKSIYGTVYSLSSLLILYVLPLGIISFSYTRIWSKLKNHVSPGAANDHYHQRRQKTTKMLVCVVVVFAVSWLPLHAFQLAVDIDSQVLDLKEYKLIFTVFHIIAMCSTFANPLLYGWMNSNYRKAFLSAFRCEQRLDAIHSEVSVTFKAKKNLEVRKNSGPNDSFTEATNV

[6] = target: Delta-type opioid receptor (Homo sapiens, UniProt P41143); assay type: cell membranes, HEK293, Membrane; settings: hek293; further: in other assays of this panel Not Active means under 50% inhibition at 10 µM
Delta-type opioid receptor, sequence (P41143 whole entry): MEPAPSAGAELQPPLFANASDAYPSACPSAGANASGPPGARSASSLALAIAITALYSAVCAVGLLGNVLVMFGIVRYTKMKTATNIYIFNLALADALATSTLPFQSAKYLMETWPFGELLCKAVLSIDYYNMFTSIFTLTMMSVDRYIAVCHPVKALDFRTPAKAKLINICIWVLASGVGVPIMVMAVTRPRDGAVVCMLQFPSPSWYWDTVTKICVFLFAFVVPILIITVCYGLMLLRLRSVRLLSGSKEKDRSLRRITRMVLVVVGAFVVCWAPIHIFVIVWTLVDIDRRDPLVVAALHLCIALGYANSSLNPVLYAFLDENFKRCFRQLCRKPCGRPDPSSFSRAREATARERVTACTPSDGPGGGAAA

Molecule	IC50 ([1]; read-out: IC50) [nM]	Ki ([1]; read-out: Ki) [nM]	IC50 [2]	IC50 [3]	IC50 ([4]; read-out: IC50) [nM]	IC50 [5]	IC50 [6]	IC50 ([1]; hek293)	IC50 ([4]; reticulocytes)	Ki ([1]; hek293)	Ki [2]	Ki [3]	Ki ([4]; reticulocytes)	Ki [5]	Ki [6]
CC(CCc1ccc(O)cc1)NCCc1ccc(O)c(O)c1 (stereo not given) [DOBUTAMINE]	114	56	Not Active	Not Active	599	Not Active	Not Active	–	–	–	–	–	–	–	–
CC(C)(Sc1cc(C(C)(C)C)c(O)c(C(C)(C)C)c1)Sc1cc(C(C)(C)C)c(O)c(C(C)(C)C)c1 [PROBUCOL]	–	–	Not Active	Not Active	–	Not Active	Not Active	Not Active	Not Active	–	–	–	–	–	–
C/C=C\c1ccc(O)c(OC)c1 [ISOEUGENOL]	–	–	Not Active	Not Active	–	Not Active	Not Active	Not Active	Not Active	–	–	–	–	–	–
[N-]=[N+]=CC(=O)OC[C@H](N)C(=O)O [AZASERINE]	–	–	Not Active	Not Active	–	Not Active	Not Active	Not Active	Not Active	–	–	–	–	–	–
CCOC(=O)C1=C(C)NC(C)=C(C(=O)OC)C1c1cccc(Cl)c1Cl (stereo not given) [FELODIPINE]	–	–	Not Active	Not Active	–	Not Active	Not Active	Not Active	Not Active	–	–	–	–	–	–
C[C@H](C(=O)O)c1cccc(C(=O)c2ccccc2)c1 [DEXKETOPROFEN]	–	–	Not Active	Not Active	–	Not Active	Not Active	Not Active	Not Active	–	–	–	–	–	–
Cc1cn[nH]c1 [FOMEPIZOLE]	–	–	Not Active	Not Active	–	Not Active	Not Active	Not Active	Not Active	–	–	–	–	–	–
O=c1cc(-c2ccccc2)oc2ccc3ccccc3c12 [BETA-NAPHTHOFLAVONE]	–	–	Not Active	Not Active	–	Not Active	Not Active	Not Active	Not Active	–	–	–	–	–	–
Cc1c(N(C)CS(=O)(=O)[O-])c(=O)n(-c2ccccc2)n1C.[Na+] [DIPYRONE SODIUM]	–	–	Not Active	Not Active	–	Not Active	Not Active	Not Active	Not Active	–	–	–	–	–	–
CN1C(=O)CN=C(c2ccccc2)c2cc(Cl)ccc21 [DIAZEPAM]	–	–	Not Active	Not Active	–	Not Active	Not Active	Not Active	Not Active	–	–	–	–	–	–
CO[C@H]1[C@@H](O)[C@H](N)[C@@H](O[C@H]2O[C@H]([C@H](C)N)CC[C@H]2N)[C@H](O)[C@@H]1N(C)C(=O)CN [ASTROMICIN]	–	–	Not Active	Not Active	–	Not Active	Not Active	Not Active	Not Active	–	–	–	–	–	–
CCn1cc(C(=O)O)c(=O)c2cc(F)c(N3CCNCC3)nc21 [ENOXACIN]	–	–	Not Active	Not Active	–	Not Active	Not Active	Not Active	Not Active	–	–	–	–	–	–
CCC(=O)O[C@H]1[C@H](O[C@@H]2[C@@H](C)[C@H](O[C@H]3C[C@@](C)(OC)[C@@H](O)[C@H](C)O3)[C@@H](C)C(=O)O[C@H](CC)[C@@](C)(O)[C@H](O)[C@@H](C)C(=O)[C@H](C)C[C@@]2(C)O)O[C@H](C)C[C@@H]1N(C)C [ERYTHROMYCIN PROPIONATE]	–	–	Not Active	Not Active	–	Not Active	Not Active	Not Active	Not Active	–	–	–	–	–	–
COBALT(II) ACETYLACETONATE	–	–	Not Active	Not Active	–	Not Active	Not Active	Not Active	Not Active	Not Active	Not Active	Not Active	Not Active	Not Active	Not Active
N[C@@H](Cc1ccc(F)cc1)C(=O)O	–	–	Not Active	Not Active	–	Not Active	Not Active	Not Active	Not Active	–	–	–	–	–	–
O=C(O)Cc1ccc(-c2ccccc2)cc1 [FELBINAC]	–	–	Not Active	Not Active	–	Not Active	Not Active	Not Active	Not Active	–	–	–	–	–	–
NC[C@H]1O[C@H](O[C@H]2[C@H](O)[C@@H](O[C@H]3O[C@H](CO)[C@@H](O)[C@H](N)[C@H]3O)[C@H](N)C[C@@H]2N)[C@H](O)[C@@H](O)[C@@H]1O [KANAMYCIN]	–	–	Not Active	Not Active	–	Not Active	Not Active	Not Active	Not Active	–	–	–	–	–	–
C[C@]12CCC(=O)C=C1CC[C@@H]1[C@@H]2[C@@H](O)C[C@@]2(C)[C@H]1CC[C@]2(O)C(=O)CO [HYDROCORTISONE]	–	–	Not Active	Not Active	–	Not Active	Not Active	Not Active	Not Active	–	–	–	–	–	–
Nc1nc(N)nc(NC2CC2)n1 [CYROMAZINE]	–	–	Not Active	Not Active	–	Not Active	Not Active	Not Active	Not Active	–	–	–	–	–	–
OCCO [ETHYLENE GLYCOL]	–	–	Not Active	Not Active	–	Not Active	Not Active	Not Active	Not Active	–	–	–	–	–	–
CCN[C@@H](C)Cc1cccc(C(F)(F)F)c1 [DEXFENFLURAMINE]	–	–	Not Active	Not Active	–	Not Active	Not Active	Not Active	Not Active	–	–	–	–	–	–
C[C@]12C/C(=C/O)C(=O)C[C@@H]1CC[C@@H]1[C@@H]2CC[C@@]2(C)[C@H]1CC[C@]2(C)O [OXYMETHOLONE]	–	–	Not Active	Not Active	–	Not Active	Not Active	Not Active	Not Active	–	–	–	–	–	–
C=C(CC)C(=O)c1ccc(OCC(=O)O)c(Cl)c1Cl [ETHACRYNIC ACID]	–	–	Not Active	Not Active	–	Not Active	Not Active	Not Active	Not Active	–	–	–	–	–	–
